Assay results reported in US9745320B2, “Five-and-six-membered heterocyclic compound, and preparation method, pharmaceutical composition and use thereof” (SHANGHAI CHEMEXPLORER CO., LTD., priority 2013, dated 2017).

Assays:
Format in all cases: biochemical
JAK2 = JAK2 (Homo sapiens, UniProt O60674); assay: JAK 2 enzymatic inhibitory activity IC50 assay (Caliper conversion rate); settings: Km ATP, 28° C., 1 hour
Procedure: (§1) Biological effect: intracytoplasmic JAK 1,2,3 enzymatic inhibitory activity IC50 assay
(§2) JAK1 buffer solution: 25 mM HEPES, pH 7.5, 0.01% Brij-35, 0.01 M Triton. JAK2,3 buffer solution: 50 mM HEPES, pH 7.5, 0.0015% Brij-35.
(§3) 2. Compound was formulated in 100% DMSO in a concentration gradient, deposited to a 384-well plate with a final concentration of 2% of DMSO.
(§4) 3. JAK2,3 enzymes were diluted to having an optimum concentration with the following buffer: 50 mM HEPES, pH 7.5, 0.0015% Brij-35, 2 mM DTT. JAK1 enzyme was diluted to having an optimum concentration with the following buffer: 25 mM HEPES, pH 7.5, 0.01% Brij-35, 2 mM DTT, 0.01M Triton. Then they were transferred to a 384-well plate and incubated with the compound for a certain time.
(§5) 4. JAK2,3 substrate was diluted to having an optimum concentration with the following buffer: 50 mM HEPES, pH 7.5, 0.0015% Brij-35, 10 mM MgCl2, Km adenosine triphosphate. JAK1 substrate was diluted to having an optimum concentration with the following buffer: 25 mM HEPES, pH 7.5, 0.01% Brij-35, 10 mM MgCl2, 0.01 M Triton. Km adenosine triphosphate was added into 384-well plates to initiate reactions, and the reaction were carried out at 28° C. for 1 hour.
(§6) 5. Read the conversion rate by Caliper Reader, and the inhibition rate are calculated according to the average of two tests.

JAK3 = molecular target: T1, JAK3 (Homo sapiens, UniProt P52333); assay: JAK 3 enzymatic inhibitory activity IC50 assay (Caliper conversion rate); settings: Km ATP, 28° C., 1 hour; read-out: JAK 3 enzymatic inhibitory activity IC50
T1 sequence (P52333 1-1124): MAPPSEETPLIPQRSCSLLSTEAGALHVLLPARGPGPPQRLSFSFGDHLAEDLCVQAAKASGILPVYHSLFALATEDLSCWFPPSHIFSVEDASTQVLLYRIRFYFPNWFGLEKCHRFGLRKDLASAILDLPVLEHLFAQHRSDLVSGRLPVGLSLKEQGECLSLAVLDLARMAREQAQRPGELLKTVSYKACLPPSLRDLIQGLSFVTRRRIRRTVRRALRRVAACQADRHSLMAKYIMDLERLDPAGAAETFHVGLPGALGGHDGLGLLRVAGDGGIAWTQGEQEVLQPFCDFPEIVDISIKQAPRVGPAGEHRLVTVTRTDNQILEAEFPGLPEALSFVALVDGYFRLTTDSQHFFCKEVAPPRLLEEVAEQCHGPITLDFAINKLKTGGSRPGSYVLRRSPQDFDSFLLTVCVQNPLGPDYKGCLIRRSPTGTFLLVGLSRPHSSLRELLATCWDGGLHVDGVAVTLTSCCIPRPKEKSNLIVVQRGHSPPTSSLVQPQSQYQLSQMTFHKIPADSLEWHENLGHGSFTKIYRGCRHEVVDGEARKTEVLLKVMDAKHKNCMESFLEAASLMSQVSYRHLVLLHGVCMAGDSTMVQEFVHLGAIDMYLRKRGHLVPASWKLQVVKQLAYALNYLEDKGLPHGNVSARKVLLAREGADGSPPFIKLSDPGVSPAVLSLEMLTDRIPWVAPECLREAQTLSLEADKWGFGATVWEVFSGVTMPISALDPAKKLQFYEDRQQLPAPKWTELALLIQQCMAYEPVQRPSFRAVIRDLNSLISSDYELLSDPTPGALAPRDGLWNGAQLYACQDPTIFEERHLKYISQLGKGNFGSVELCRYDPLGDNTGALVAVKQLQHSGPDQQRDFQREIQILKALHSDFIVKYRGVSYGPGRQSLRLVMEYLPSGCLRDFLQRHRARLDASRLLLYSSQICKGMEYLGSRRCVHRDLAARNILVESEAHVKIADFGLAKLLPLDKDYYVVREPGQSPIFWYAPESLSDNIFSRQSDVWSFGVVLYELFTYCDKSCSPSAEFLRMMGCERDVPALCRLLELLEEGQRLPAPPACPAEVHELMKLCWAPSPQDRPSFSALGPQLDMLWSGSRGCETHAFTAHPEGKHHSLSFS
Procedure: as §1, §2, §3
as §4, with “time. […]” for “time.”
as §6

JAK1 = JAK1 (Homo sapiens, UniProt P23458); assay: JAK 1 enzymatic inhibitory activity IC50 assay (Caliper conversion rate); settings: Km ATP, 28° C., 1 hour
JAK1, sequence (P23458 whole entry, species assumed): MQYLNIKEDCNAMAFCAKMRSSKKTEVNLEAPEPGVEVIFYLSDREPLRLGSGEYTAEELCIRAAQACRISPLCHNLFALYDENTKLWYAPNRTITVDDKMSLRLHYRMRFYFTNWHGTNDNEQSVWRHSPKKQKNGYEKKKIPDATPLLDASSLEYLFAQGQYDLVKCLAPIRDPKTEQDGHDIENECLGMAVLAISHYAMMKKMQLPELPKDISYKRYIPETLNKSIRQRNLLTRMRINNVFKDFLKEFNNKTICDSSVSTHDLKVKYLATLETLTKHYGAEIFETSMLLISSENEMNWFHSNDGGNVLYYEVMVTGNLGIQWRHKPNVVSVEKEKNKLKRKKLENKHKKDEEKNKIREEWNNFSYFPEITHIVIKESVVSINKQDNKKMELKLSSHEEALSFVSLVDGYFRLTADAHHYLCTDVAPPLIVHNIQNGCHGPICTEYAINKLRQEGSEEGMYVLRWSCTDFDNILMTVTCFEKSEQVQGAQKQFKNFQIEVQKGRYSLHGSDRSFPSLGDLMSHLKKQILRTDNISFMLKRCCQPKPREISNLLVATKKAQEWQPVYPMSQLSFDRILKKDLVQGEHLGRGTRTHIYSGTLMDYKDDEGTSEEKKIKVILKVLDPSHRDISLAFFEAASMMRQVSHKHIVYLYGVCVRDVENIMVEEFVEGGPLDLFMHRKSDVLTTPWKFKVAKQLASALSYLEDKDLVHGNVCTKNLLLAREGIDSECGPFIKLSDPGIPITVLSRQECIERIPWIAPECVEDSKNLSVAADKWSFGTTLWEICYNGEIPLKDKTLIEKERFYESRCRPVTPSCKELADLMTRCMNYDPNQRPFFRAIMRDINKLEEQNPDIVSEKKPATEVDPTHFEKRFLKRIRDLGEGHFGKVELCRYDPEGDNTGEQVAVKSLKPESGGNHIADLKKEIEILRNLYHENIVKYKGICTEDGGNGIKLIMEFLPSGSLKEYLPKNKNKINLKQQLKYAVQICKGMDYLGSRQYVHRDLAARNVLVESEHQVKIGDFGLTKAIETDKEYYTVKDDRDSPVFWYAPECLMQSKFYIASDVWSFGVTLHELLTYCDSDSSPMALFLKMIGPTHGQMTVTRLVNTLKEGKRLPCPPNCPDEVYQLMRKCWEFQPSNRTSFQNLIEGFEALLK
Procedure: as §1, §2, §3, §4, §5, §6

JAK2, sequence (O60674 whole entry, species assumed): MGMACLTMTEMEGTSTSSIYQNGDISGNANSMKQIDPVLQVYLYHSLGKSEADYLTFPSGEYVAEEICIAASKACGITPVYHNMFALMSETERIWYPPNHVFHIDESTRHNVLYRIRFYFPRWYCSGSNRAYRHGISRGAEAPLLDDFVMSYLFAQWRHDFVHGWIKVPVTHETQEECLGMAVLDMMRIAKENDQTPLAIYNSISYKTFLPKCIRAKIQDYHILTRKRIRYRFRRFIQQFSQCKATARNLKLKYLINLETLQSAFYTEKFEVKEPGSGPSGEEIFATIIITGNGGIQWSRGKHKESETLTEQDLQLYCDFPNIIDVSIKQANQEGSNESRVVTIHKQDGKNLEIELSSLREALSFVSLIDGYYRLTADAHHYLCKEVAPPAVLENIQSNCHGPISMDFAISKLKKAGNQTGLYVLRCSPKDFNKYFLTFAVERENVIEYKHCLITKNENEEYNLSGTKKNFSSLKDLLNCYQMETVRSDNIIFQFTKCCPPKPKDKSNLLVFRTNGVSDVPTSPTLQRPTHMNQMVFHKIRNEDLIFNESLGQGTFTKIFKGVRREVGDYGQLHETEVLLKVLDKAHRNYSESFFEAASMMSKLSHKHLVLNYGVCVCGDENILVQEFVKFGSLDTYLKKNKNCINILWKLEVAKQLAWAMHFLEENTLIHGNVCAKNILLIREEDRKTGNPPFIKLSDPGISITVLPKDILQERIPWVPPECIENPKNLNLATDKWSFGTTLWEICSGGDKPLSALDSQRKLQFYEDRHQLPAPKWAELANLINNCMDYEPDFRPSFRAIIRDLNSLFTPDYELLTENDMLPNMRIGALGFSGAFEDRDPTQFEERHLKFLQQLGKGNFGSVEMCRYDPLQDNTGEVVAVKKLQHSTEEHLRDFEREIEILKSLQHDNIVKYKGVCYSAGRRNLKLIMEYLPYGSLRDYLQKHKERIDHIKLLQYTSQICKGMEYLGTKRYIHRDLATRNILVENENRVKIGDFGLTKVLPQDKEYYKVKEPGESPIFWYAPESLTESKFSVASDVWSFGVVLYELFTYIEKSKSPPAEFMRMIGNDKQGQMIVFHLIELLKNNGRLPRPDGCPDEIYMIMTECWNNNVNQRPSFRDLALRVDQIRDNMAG

Row | SMILES | IC50 (JAK2) [µM] | IC50 (JAK3) [µM] | IC50 (JAK1) [µM]
1 | CC(CC#N)n1cc(-c2nc(NCc3ccccc3)nc3ccsc23)cn1 (stereo not shown) [Compound T-01, 3-(4-(2-(Benzylamino)thieno[3,2-d]pyrimidin-4-yl)-1H-pyrazol-1-yl)butanenitrile] | > 1 | > 1 | –
2 | CC(CC#N)n1cc(-c2nc(Nc3ccccc3)nc3ccsc23)cn1 (stereo not shown) [Compound T-02, 3-(4-(2-(Phenylamino)thieno[3,2-d]pyrimidin-4-yl)-1H-pyrazol-1-yl)butanenitrile] | 0.05 to 0.5 | > 1 | –
3 | N#CCC(C1CCCC1)n1cc(-c2nc(Nc3ccccc3)nc3ccsc23)cn1 (stereo not shown) [Compound T-03, 3-Cyclopentyl-3-(4-(2-(phenylamino)thieno[3,2-d]pyrimidin-4-yl)-1H-pyrazol-1-yl)propanenitrile] | < 0.05 | > 1 | –
4 | N#CCC(C1CCCC1)n1cc(-c2nc(Nc3cncnc3)nc3ccsc23)cn1 (stereo not shown) [Compound T-04, 3-Cyclopentyl-3-(4-(2-(pyrimidin-5-ylamino)thieno[3,2-d]pyrimidin-4-yl)-1H-pyrazol-1-yl)propanenitrile] | < 0.05 | > 1 | –
5 | CCS(=O)(=O)N1CC(CC#N)(n2cc(-c3nc(Nc4ccccc4)nc4ccsc34)cn2)C1 [Compound T-05, 2-(1-(Ethylsulfonyl)-3-(4-(2-(phenylamino)thieno[3,2-d]pyrimidin-4-yl)-1H-pyrazol-1-yl)azetidin-3-yl)acetonitrile] | < 0.05 | 0.05 to 0.5 | 0.05 to 0.5
6 | CCS(=O)(=O)N1CC(CC#N)(n2cc(-c3nc(NC4CCOCC4)nc4ccsc34)cn2)C1 [Compound T-06, 2-(1-(Ethylsulfonyl)-3-(4-(2-((tetrahydro-2H-pyran-4-yl)amino)thieno[3,2-d]pyrimidin-4-yl)-1H-pyrazol-1-yl)azetidin-3-yl)acetonitrile] | > 1 | > 1 | –
7 | CCS(=O)(=O)N1CC(CC#N)(n2cc(-c3nc(Nc4ccc(N5CCOCC5)cc4)nc4ccsc34)cn2)C1 [Compound T-07, 2-(1-(Ethylsulfonyl)-3-(4-(2-((4-morpholinophenyl)amino)thieno[3,2-d]pyrimidin-4-yl)-1H-pyrazol-1-yl)azetidin-3-yl)acetonitrile] | < 0.05 | 0.05 to 0.5 | < 0.05
8 | CCS(=O)(=O)N1CC(CC#N)(n2cc(-c3nc(Nc4ccc(OCCN5CCOCC5)cc4)nc4ccsc34)cn2)C1 [Compound T-08, 2-(1-(Ethylsulfonyl)-3-(4-(2-((4-(2-morpholinoethoxy)phenyl)amino)thieno[3,2-d]pyrimidin-4-yl)-1H-pyrazol-1-yl)azetidin-3-yl)acetonitrile] | < 0.05 | 0.05 to 0.5 | –
9 | CCS(=O)(=O)N1CC(CC#N)(n2cc(-c3nc(Nc4ccc(OCCN5CCCC5)cc4)nc4ccsc34)cn2)C1 [Compound T-09, 2-(1-(Ethylsulfonyl)-3-(4-(2-((4-(2-(pyrrolidin-1-yl)ethoxy)phenyl)amino)thieno[3,2-d]pyrimidin-4-yl)-1H-pyrazol-1-yl)azetidin-3-yl)acetonitrile] | < 0.05 | 0.05 to 0.5 | 0.05 to 0.5
10 | CCS(=O)(=O)N1CC(CC#N)(n2cc(-c3nc(Nc4ccc(-n5cncn5)cc4)nc4ccsc34)cn2)C1 [Compound T-10, 2-(3-(4-(2-((4-(1H-1,2,4-Triazol-1-yl)phenyl)amino)thieno[3,2-d]pyrimidin-4-yl)-1H-pyrazol-1-yl)-1-(ethylsulfonyl)azetidin-3-yl)acetonitrile] | < 0.05 | 0.05 to 0.5 | < 0.05
11 | CCS(=O)(=O)N1CC(CC#N)(n2cc(-c3nc(Nc4ccc(-n5cccn5)cc4)nc4ccsc34)cn2)C1 [Compound T-11, 2-(3-(4-(2-((4-(1H-Pyrazol-1-yl)phenyl)amino)thieno[3,2-d]pyrimidin-4-yl)-1H-pyrazol-1-yl)-1-(ethylsulfonyl)azetidin-3-yl)acetonitrile] | < 0.05 | > 1 | 0.05 to 0.5
12 | CCS(=O)(=O)N1CC(CC#N)(n2cc(-c3nc(Nc4ccc(S(C)(=O)=O)cc4)nc4ccsc34)cn2)C1 [Compound T-12, 2-(1-(Ethylsulfonyl)-3-(4-(2-((4-(methylsulfonyl)phenyl)amino)thieno[3,2-d]pyrimidin-4-yl)-1H-pyrazol-1-yl)azetidin-3-yl)acetonitrile] | < 0.05 | 0.05 to 0.5 | < 0.05
13 | CCS(=O)(=O)N1CC(CC#N)(n2cc(-c3nc(Nc4cccc(N5CCOCC5)c4)nc4ccsc34)cn2)C1 [Compound T-13, 2-(1-(Ethylsulfonyl)-3-(4-(2-((3-morpholinophenyl)amino)thieno[3,2-d]pyrimidin-4-yl)-1H-pyrazol-1-yl)azetidin-3-yl)acetonitrile] | 0.05 to 0.5 | 0.5 to 1 | 0.5 to 1
14 | CCS(=O)(=O)N1CC(CC#N)(n2cc(-c3nc(Nc4cncnc4)nc4ccsc34)cn2)C1 [Compound T-14, 2-(1-(Ethylsulfonyl)-3-(4-(2-(pyrimidin-5-ylamino)thieno[3,2-d]pyrimidin-4-yl)-1H-pyrazol-1-yl)azetidin-3-yl)acetonitrile] | < 0.05 | > 1 | 0.5 to 1
15 | CCS(=O)(=O)N1CC(CC#N)(n2cc(-c3nc(Nc4cnn(C)c4)nc4ccsc34)cn2)C1 [Compound T-15, 2-(1-(Ethylsulfonyl)-3-(4-(2-((1-methyl-1H-pyrazol-4-yl)amino)thieno[3,2-d]pyrimidin-4-yl)-1H-pyrazol-1-yl)azetidin-3-yl)acetonitrile] | < 0.05 | 0.05 to 0.5 | < 0.05
16 | N#CCNC(=O)c1ccc(-c2nc(Nc3ccccc3)nc3ccsc23)cc1 [Compound T-16, N-(Cyanomethyl)-4-(2-(phenylamino)thieno[3,2-d]pyrimidin-4-yl)benzamide] | > 1 | > 1 | > 1
17 | CC(C)(C)NS(=O)(=O)c1ccc(-c2nc(Nc3ccc(N4CCOCC4)cc3)nc3ccsc23)cc1 [Compound T-17, N-(Tert-butyl)-4-(2-((4-morpholinophenyl)amino)thieno[3,2-d]pyrimidin-4-yl)benzenesulfonamide] | > 1 | > 1 | > 1
18 | CCS(=O)(=O)N1CC(CC#N)(n2cc(-c3nc(Nc4ccc(F)cc4)nc4ccsc34)cn2)C1 [Compound T-24, 2-(1-(Ethylsulfonyl)-3-(4-(2-((4-fluorophenyl)amino)thieno[3,2-d]pyrimidin-4-yl)-1H-pyrazol-1-yl)azetidin-3-yl)acetonitrile] | < 0.05 | > 1 | –
19 | CCS(=O)(=O)N1CC(CC#N)(n2cc(-c3nc(NC4CCCCC4)nc4ccsc34)cn2)C1 [Compound T-27, 2-(3-(4-(2-(Cyclohexylamino)thieno[3,2-d]pyrimidin-4-yl)-1H-pyrazol-1-yl)-1-(ethylsulfonyl)azetidin-3-yl)acetonitrile] | > 1 | > 1 | –
